Experimental data from ChEMBL document CHEMBL2401653, “Synthesis, structure-property relationships and pharmacokinetic evaluation of ethyl 6-aminonicotinate sulfonylureas as antagonists of the P2Y₁₂ receptor” (Eur J Med Chem, 2013).

Tests used:
[1] = Stability of the compound in MeCN assessed as compound remaining at room temperature; type: physicochemical
P2Y purinoceptor 12 [2] = biological target: T1, P2Y purinoceptor 12 (Homo sapiens, UniProt Q9H244)
Description: Displacement of [125I]-AZ11931285 from P2Y12 receptor (unknown origin) after 1 hr by scintillation counting analysis

[3] = 1-octanol-phosphate buffer distribution coefficient, log D of the compound at pH 7.4 after 2 days by shake flask method; type: physicochemical
P2Y purinoceptor 12 [4] = biological target: T1, P2Y purinoceptor 12; remark: listed apart in the source
[5] = Apparent Permeability across apical to basolateral side in human Caco2 cells at 1 to 10 uM measured at 30 to 90 mins by LC/MS analysis; type: ADME, cell-based; settings: Caco-2
Liver microsomes [6] = test: Intrinsic clearance in human liver microsomes at 1 umol/L by LC/MS analysis in presence of NADPH; type: ADME, Microsome; settings: 1 µM
Liver microsomes [7] = test: Metabolic stability in human liver microsomes at 1 umol/L by LC/MS analysis in absence of NADPH; type: ADME, Microsome; settings: 1 µM
Liver microsomes [8] = test: Metabolic stability in rat liver microsomes at 1 umol/L by LC/MS analysis in absence of NADPH; type: ADME, Microsome; settings: 1 µM
Liver microsomes [9] = test: Intrinsic clearance in rat liver microsomes at 1 umol/L by LC/MS analysis in presence of NADPH; type: ADME, Microsome; settings: 1 µM
[10] = Fraction unbound in human plasma; type: ADME, cell-free
[11] = Half life in iv dosed rat; type: ADME, organism-based; settings: in vivo
[12] = Clearance in iv dosed rat; type: ADME, organism-based; settings: in vivo
[13] = Half life in po dosed rat; type: ADME, organism-based; settings: in vivo
Plasma = test: Metabolic stability in rat plasma by HRMS analysis; type: ADME, cell-free
[14] = Oral bioavailability in rat; type: ADME, organism-based; settings: in vivo

T1 sequence (Q9H244 whole entry): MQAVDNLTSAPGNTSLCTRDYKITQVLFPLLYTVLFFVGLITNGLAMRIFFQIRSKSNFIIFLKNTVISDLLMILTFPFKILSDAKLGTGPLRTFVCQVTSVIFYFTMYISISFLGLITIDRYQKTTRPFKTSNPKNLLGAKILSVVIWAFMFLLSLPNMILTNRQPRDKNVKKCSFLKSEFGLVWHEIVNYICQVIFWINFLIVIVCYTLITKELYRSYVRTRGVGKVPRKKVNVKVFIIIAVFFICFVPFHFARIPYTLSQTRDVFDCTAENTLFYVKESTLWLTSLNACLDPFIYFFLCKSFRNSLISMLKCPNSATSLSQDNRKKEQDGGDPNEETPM

| Compound | Stability [1] | IC50 (P2Y purinoceptor 12 [2]) [nM] | logD at 48 h [3] | IC50 (P2Y purinoceptor 12 [4]) [nM] | Papp A→B at up to 10 µM [5] [×10⁻⁶ cm/s] | Intrinsic clearance (CLint) (Liver microsomes [6]) [µL/min/mg] | Intrinsic clearance (Liver microsomes [9]) [µL/min/mg] | also measured |
| --- | --- | --- | --- | --- | --- | --- | --- | --- |
| O=C(O)c1cnc(N2CCN(C(=O)NS(=O)(=O)c3ccccc3)CC2)c(Cl)c1 | Stable | > 33000 | < 0.5 | – | – | – | – | – |
| CCOC(=O)c1cnc(N2CCN(C(=S)Nc3ccccc3)CC2)c(Cl)c1 | Stable | 12000 | – | 3700 | – | – | – | – |
| CCOC(=O)c1cc(C#N)c(N2CC(NC(=O)NS(=O)(=O)c3ccc(Cl)cc3)C2)nc1C | Stable | 86 | 1.1 | 78 | 1.2 | < 13 | – | – |
| CCOC(=O)c1cc(C#N)c(N2CCN(C(=O)NS(=O)(=O)c3ccccc3)CC2)nc1C | Stable | 140 | – | 130 | 0.3 | – | – | Stability (Liver microsomes [7]): Stable; Stability (Liver microsomes [8]): Stable |
| CCOC(=O)c1cc(C#N)c(N2CCCN(C(=O)NS(=O)(=O)c3ccc(Cl)s3)CC2)nc1C | Stable | 630 | 0.9 | 240 | – | – | – | – |
| CCOC(=O)c1cc(C#N)c(N2CCN(C(=O)NS(=O)(=O)c3ccccc3)CC2)nc1C(F)(F)F | Stable | 170 | – | 220 | 0.6 | > 70 | > 104 | Stability (Liver microsomes [7]): Stable; Stability (Liver microsomes [8]): Stable |
| CCOC(=O)c1cnc(N2CCN(C(=O)Nc3ccccc3)CC2)c(Cl)c1 | Stable | – | – | – | – | – | – | – |
| COC(=O)c1cnc(N2CCN(C(=O)NS(=O)(=O)c3ccc(Cl)s3)CC2)c(Cl)c1 | Stable | 650 | 0.9 | 3200 | – | – | – | – |
| CCOC(=O)c1cnc(N2CCN(C(=O)Nc3ccccc3C)CC2)c(Cl)c1 | Stable | – | – | – | – | – | – | – |
| CCOC(=O)c1cc(C#N)c(N2CCN(C(=O)NS(=O)(=O)c3ccc(Cl)s3)C(CCC(=O)O)C2)nc1C(F)(F)F (racemic) | Stable | 95 | – | 110 | 0.19 | < 13 | > 104 | fraction unbound [10]: < 0.015; half-life [11]: 0.62 h; clearance [12]: 46 mL/min/kg; half-life [13]: 4 h; Stability (Plasma): Unstable; bioavailability [14]: 0.83% |
| O=C(c1cnc(N2CCN(C(=O)NS(=O)(=O)c3ccc(Cl)s3)CC2)c(Cl)c1)C1CC1 | Stable | 420 | 1.2 | 1300 | 0.12 | < 13 | < 19 | – |
| CCOC(=O)c1cnc(N2CCN(C(=O)Nc3ccc(C)cc3)CC2)c(Cl)c1 | Stable | – | – | – | – | – | – | – |
| CCOC(=O)c1cc(C#N)c(N2CCN(C(=O)NS(=O)(=O)Cc3ccccc3)CC2)nc1C | Stable | 33 | 0.9 | 54 | 0.37 | < 13 | > 104 | – |
| CCOC(=O)c1cc(C#N)c(N2CCC(NC(=O)NS(=O)(=O)c3ccc(Cl)cc3)CC2)nc1C | Stable | 190 | 2.1 | 260 | 19 | > 70 | > 104 | – |
| CC(C)CCOC(=O)c1cnc(N2CCN(C(=O)NS(=O)(=O)c3ccc(Cl)s3)CC2)c(Cl)c1 | Stable | 140 | 2.7 | 110 | 0.44 | > 70 | – | – |
| CCOC(=O)c1cc(C#N)c(N2CCN(C(=O)NS(=O)(=O)c3ccccc3Cl)CC2)nc1C(F)(F)F | Stable | 690 | – | 470 | – | – | – | – |
| CCOC(=O)c1cnc(N2CCN(C(=S)NC(=O)c3ccccc3)CC2)c(Cl)c1 | Stable | 2400 | – | 990 | – | – | – | – |
| CC(C)OC(=O)c1cnc(N2CCN(C(=O)NS(=O)(=O)c3ccc(Cl)s3)CC2)c(Cl)c1 | Stable | 250 | 1.5 | 530 | – | > 70 | > 104 | – |
| CCOC(=O)c1cc(C#N)c(N2CC(NC(=O)NS(=O)(=O)c3ccccc3)C2)nc1C | Stable | 62 | 0.4 | 190 | 0.41 | < 13 | < 19 | fraction unbound [10]: < 0.015; half-life [11]: 1.7 h; clearance [12]: 13 mL/min/kg; half-life [13]: 9 h; Stability (Plasma): Unstable; bioavailability [14]: 39% |
| CCCCOC(=O)c1cnc(N2CCN(C(=O)NS(=O)(=O)c3ccc(Cl)s3)CC2)c(Cl)c1 | Stable | 95 | 2.3 | 150 | 0.5 | > 70 | – | – |

| Compound | Stability [1] | IC50 (P2Y purinoceptor 12 [2]) [nM] | logD at 48 h [3] | IC50 (P2Y purinoceptor 12 [4]) [nM] | Papp A→B at up to 10 µM [5] [×10⁻⁶ cm/s] | Intrinsic clearance (CLint) (Liver microsomes [6]) [µL/min/mg] | Intrinsic clearance (Liver microsomes [9]) [µL/min/mg] | also measured |
| --- | --- | --- | --- | --- | --- | --- | --- | --- |
| CCCOC(=O)c1cnc(N2CCN(C(=O)NS(=O)(=O)c3ccc(Cl)s3)CC2)c(Cl)c1 | Stable | 210 | 1.6 | 240 | – | – | – | – |
| CCOC(=O)c1cc(C#N)c(N2CCN(C(=O)NS(=O)(=O)c3ccccc3C)CC2)nc1C(F)(F)F | Stable | 430 | – | 380 | – | – | – | – |
| CCCS(=O)(=O)c1cnc(N2CCN(C(=O)NS(=O)(=O)c3ccc(Cl)s3)CC2)c(Cl)c1 | Stable | 9300 | – | 14000 | – | – | – | – |
| CCOC(=O)c1cc(C#N)c(N2CC3CN(C(=O)NS(=O)(=O)c4ccccc4)CC3C2)nc1C (configuration not stated) | Stable | 240 | 0.4 | 580 | 0.39 | < 13 | < 19 | – |
| CCOC(=O)c1cnc(N2CCN(C(=O)Nc3ccccc3)CC2)c(C#N)c1 | Stable | – | 3.7 | – | – | – | – | – |
| CCOC(=O)c1cc(C#N)c(N2CC(NC(=O)NS(=O)(=O)Cc3ccccc3)C2)nc1C | Stable | 79 | 1.1 | 82 | 1.2 | – | – | fraction unbound [10]: < 0.015; half-life [11]: 0.55 h; clearance [12]: 31 mL/min/kg; half-life [13]: 1.3 h; Stability (Plasma): Unstable; bioavailability [14]: 3% |
| CCOC(=O)c1cnc(N2CCN(C(=O)NC(=O)c3ccccc3)CC2)c(Cl)c1 | Stable | 9900 | – | 5300 | – | – | – | – |
| CCOC(=O)c1cc(C#N)c(N2CCN(C(=O)NCc3ccc(F)cc3)CC2)nc1C(F)(F)F | Stable | – | 5 | – | – | – | – | – |
| CCOC(=O)c1cc(C#N)c(N2CCC(NC(=O)NS(=O)(=O)c3ccc(Cl)s3)CC2)nc1C | Stable | 27 | 1.6 | 57 | 6.9 | > 70 | > 104 | – |
| CCOC(=O)c1cc(C#N)c(N2CCN(C(=O)NS(=O)(=O)c3ccc(Cl)s3)CC2C)nc1C (racemic) | Stable | 64 | 1.6 | 37 | 0.31 | > 70 | > 104 | – |
| CCCC(=O)c1cnc(N2CCN(C(=O)NS(=O)(=O)c3ccc(Cl)s3)CC2)c(Cl)c1 | Stable | 560 | 1.3 | 890 | 0.16 | – | > 104 | – |
| CCOC(=O)c1cnc(N2CCN(C(=O)NS(=O)(=O)c3ccc(F)cc3)CC2)c(Cl)c1 | Stable | 370 | 0.6 | 470 | 0.54 | > 70 | > 104 | – |
| C=C(NC(=O)N1CCN(c2ncc(C(=O)OCC)cc2Cl)CC1)c1ccccc1 | Stable | 2400 | – | 1700 | – | – | – | – |
| CCOC(=O)c1cc(C#N)c(N2CCC(NC(=O)NS(=O)(=O)Cc3ccccc3)CC2)nc1C | Stable | 88 | 1.9 | 150 | 30 | – | > 104 | – |
| CCOC(=O)c1cc(C#N)c(N2CCN(C(=O)NS(=O)(=O)c3ccc(Cl)cc3)CC2)nc1C(F)(F)F | Stable | 68 | – | 97 | 0.13 | > 70 | > 104 | – |
| CCOC(=O)c1cnc(N2CCN(C(=O)NS(=O)(=O)c3ccccc3Cl)CC2)c(Cl)c1 | Stable | 870 | 0.6 | 990 | – | – | – | – |
| CCOC(=O)c1cc(C#N)c(N2C[C@@H]3C[C@H]2CN3C(=O)NS(=O)(=O)c2ccc(Cl)s2)nc1C | Stable | 2900 | – | 690 | – | – | – | – |
| CCOC(=O)c1cc(C#N)c(N2CCN(C(=O)NS(=O)(=O)c3ccc(F)cc3)CC2)nc1C(F)(F)F | Stable | 230 | 0.4 | 210 | 0.053 | – | > 104 | – |
| CCOC(=O)c1ccc(N2CCN(C(=O)NS(=O)(=O)c3ccc(Cl)s3)CC2)c(Cl)c1 | Stable | 660 | 1.5 | 1800 | – | – | > 104 | – |
